According to patent US6696407B1, “Huntington's disease treatment comprising administering aldose reductase inhibitors to increase striatal CNTF” (The Regents of the University of California, priority 1997, dated 2004):
“Also recorded” adds a separate entry of the source. Marks after values point to notes of the source that are not given here.

Assays:
Assay type in all cases: in vivo, rat
[1] = test system: CNTF mRNA; assay: Sciatic nerve CNTF mRNA by Northern blot; details: control and galactose-fed rats
Description: These studies were conducted with the approval of the San Diego Veterans Administration Animal Studies Subcommittee. Female Sprague-Dawley rats (240-300 g; Charles River, San Diego, Calif.) were housed in cages with wire bottoms to reduce contact with urine and feces. Groups were established and fed either a 40% D-galactose diet or a control diet specially formulated by Purina that contained 40% solka floc, a nonnutritive fiber, to balance nutritional intake. All diets contained 100% of the micronutrients required by rats and, with water, were available ad libitum. Each of these diet groups contained animals that were treated with the ARI, Ponalrestat (50 mg/kg), daily by oral gavage. […] Under deep anesthesia, motor nerve conduction velocity (MNCV) was measured in the left hindlimb prior to removal of the sciatic nerve. […]
CNTF mRNA levels in sciatic nerve were obtained by first homogenizing 1 cm segments of nerve on ice for 30 seconds in 4 M guanidine thiocyanate containing 0.1 M β-mercaptoethanol, 25 mM sodium citrate and 0.5% sarcosyl (pH 7.0). […] Autoradiographic bands were quantified using an Ultrascan XL laser densitometer (LKB, Uppsala, Sweden). Ratios of CNTF:GAPDH were determined using optical densities in the linear range for both probes.

[2] = test system: CNTF; assay: Striatal CNTF levels by ELISA; details: adult rats, oral 50 mg/kg/day for two months
Description: CNTF protein was determined with an ELISA that utilizes a monoclonal capture antibody which recognizes a non-C-terminal epitope on both rat and human CNTF (Regeneron, Tarrytown, N.Y.). The captured CNTF was recognized by a polyclonal rabbit anti-rCNTF reporter antibody. An alkaline phosphatase-tagged goat anti-rabbit IgG was used to generate the signal. In practice, 96-well Immulon plates were coated with capture antibody overnight, then blocked and washed. After overnight incubation of standards and samples, plates were washed and reporter antibody added. Following final washes, the reaction was developed using the GIBCO BRL ELISA amplification system substrate and amplifier. The reaction was stopped with 0.5 N H2SO4 and the plates read at two wavelengths (490 nm and 650 nm).
ARIs Toirestat and Ponalrestat were orally administered to adult rats at a dose of 50 mg/kg/day for two months as described in Example 1 and in Mizisin et al (1997) Diabetes 46: 647-652. For each rat, the left and right striatum were dissected and combined for homogenization in phosphate buffered saline. CNTF levels in extract preparations were then measured by ELISA, as described in Example 1. Four rats served as controls, and five rats each received Tolrestat and Ponalrestat. Five ELISA assays were run for each rat and one mean value derived for each rat.

[3] = Motor nerve conduction velocity (MNCV); details: Ponalrestat 50 mg/kg daily oral, two months
Description: These studies were conducted with the approval of the San Diego Veterans Administration Animal Studies Subcommittee. Female Sprague-Dawley rats (240-300 g; Charles River, San Diego, Calif.) were housed in cages with wire bottoms to reduce contact with urine and feces. Groups were established and fed either a 40% D-galactose diet or a control diet specially formulated by Purina that contained 40% solka floc, a nonnutritive fiber, to balance nutritional intake. All diets contained 100% of the micronutrients required by rats and, with water, were available ad libitum. Each of these diet groups contained animals that were treated with the ARI, Ponalrestat (50 mg/kg), daily by oral gavage. […] Under deep anesthesia, motor nerve conduction velocity (MNCV) was measured in the left hindlimb prior to removal of the sciatic nerve. […] Evoked responses were recorded with needle electrodes placed in the interosseous muscles of the ipsilateral foot, amplified (×100) with a P15 AC Amplifier (Grass Instruments Co, Quincy, Mass.) and recorded on a 5110 Storage Oscilloscope and 5D10 Waveform Digitizer (Tektronix, Inc., Beaverton, Oreg.). […] Data are presented as mean ±SD (N=8 to 10) and were analyzed with a one way ANOVA after which multiple comparisons were made with the Student-Newman-Keuls test. […] ARI-treated animals received a daily oral gavage (50 mg/kg) of Ponalrestat (ND-Not detected).

SMILES: O=C(O)Cc1nn(Cc2ccc(Br)cc2F)c(=O)c2ccccc12 [Ponalrestat, 3-(4-bromo-2-fluorobenzyl)-4-oxo-3H-phthalazin-1-ylacetic acid]
- Level of CNTF message, CNTF:GAPDH ratios [1]: no marked effect
- Increase in striatal CNTF activity level versus control group [2]: significantly increased; also recorded: approximately three-fold
- MNCV ([3]; 40% D-galactose diet rats): 64.8 ± 5.1^a m/s
- MNCV ([3]; control diet rats): 63.9 ± 4.0^a m/s
